Laboratory results taken from patent publication US10047095B2, “sGC stimulators” (IRONWOOD PHARMACEUTICALS, INC., priority 2014, dated 2018).

Tests used:
[1] = biological target: T1, human recombinant soluble guanylate cyclase enzyme α1β1 (Homo sapiens, UniProt Q02108+Q02153); assay: Purified human recombinant sGC α1β1 enzyme assay in the presence of DETA-NONOate (cGMP HTRF); assay type: biochemical; conditions: 30 uM DETA NONOate; 50% of maximal response of 30 uM Compound Y; read-out: sGC_Enz_HTRF_a1b1 EC50/IC50 Abs (Norm) (nM) Binned
T1 construct: purchased Enzo Life Sciences ALX-201-177
T1 sequence (Q02108 1-690): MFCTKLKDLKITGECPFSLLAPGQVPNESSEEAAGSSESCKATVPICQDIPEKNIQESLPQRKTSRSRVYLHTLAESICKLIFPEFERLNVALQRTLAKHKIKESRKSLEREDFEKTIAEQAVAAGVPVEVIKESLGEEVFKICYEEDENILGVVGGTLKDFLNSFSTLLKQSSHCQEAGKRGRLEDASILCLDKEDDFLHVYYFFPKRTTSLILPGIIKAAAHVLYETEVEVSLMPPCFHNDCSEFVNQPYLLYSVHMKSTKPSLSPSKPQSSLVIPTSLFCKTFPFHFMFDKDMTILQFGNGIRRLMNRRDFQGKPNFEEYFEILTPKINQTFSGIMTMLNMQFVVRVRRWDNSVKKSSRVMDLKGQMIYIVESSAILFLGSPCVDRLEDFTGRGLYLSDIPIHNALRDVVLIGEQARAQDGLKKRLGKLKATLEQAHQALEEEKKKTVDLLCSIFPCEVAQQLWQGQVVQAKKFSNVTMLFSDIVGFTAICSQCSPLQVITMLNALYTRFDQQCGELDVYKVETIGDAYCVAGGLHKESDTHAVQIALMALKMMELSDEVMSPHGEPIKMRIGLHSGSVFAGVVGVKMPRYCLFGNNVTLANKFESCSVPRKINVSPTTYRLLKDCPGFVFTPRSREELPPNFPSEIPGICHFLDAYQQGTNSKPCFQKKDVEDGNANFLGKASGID
T1 sequence (Q02153 1-619): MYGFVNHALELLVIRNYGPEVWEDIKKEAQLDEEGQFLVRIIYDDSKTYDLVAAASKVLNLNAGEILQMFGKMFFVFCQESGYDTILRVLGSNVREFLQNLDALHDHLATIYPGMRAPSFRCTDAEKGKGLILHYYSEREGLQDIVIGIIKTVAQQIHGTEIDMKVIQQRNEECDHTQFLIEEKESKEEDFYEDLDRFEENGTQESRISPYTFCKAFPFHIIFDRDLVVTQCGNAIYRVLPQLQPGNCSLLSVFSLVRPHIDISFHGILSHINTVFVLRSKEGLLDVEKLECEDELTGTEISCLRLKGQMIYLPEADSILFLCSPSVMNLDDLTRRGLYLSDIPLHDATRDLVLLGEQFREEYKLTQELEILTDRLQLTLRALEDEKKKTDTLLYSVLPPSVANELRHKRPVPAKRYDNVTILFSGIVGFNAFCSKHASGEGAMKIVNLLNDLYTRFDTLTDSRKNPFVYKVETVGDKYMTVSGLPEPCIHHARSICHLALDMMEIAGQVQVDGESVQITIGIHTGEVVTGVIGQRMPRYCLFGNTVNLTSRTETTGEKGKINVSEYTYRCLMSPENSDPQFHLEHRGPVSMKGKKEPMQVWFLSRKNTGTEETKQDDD
Experimental: Purified human recombinant soluble guanylate cyclase enzyme α1β1(h sGC) obtained from Enzo Life Sciences (P/N: ALX-201-177) was used to evaluate the activity of test compounds. The assay reactions contained 0.1 M Tris (pH 8.0), 0.5 mg/mL BSA, 2 mM DTT, 4 mM MgCl2, 30 uM DETA NONOate (Enzo Life Science P/N: ALX-430-014), and 12.5 ng/ml human soluble guanylate cyclase enzyme. […] Guanosine 5′-triphosphate (Sigma-Aldrich P/N: G8877) was added to a final concentration of 300 μM and enzyme reactions were incubated (100 μL, 384-well plate format) at 37° C. for 20 minutes. The controls contained 3% DMSO (low control), or 30 uM of Compound Y (high control). After the 20 minute incubation, the reaction was stopped with the addition of 100 μL of ice cold 20% acetic acid.
cGMP concentrations in all samples were determined using the cGMP HTRF (Cisbio P/N: 62GM2PEC) assay per manufacturer's instructions. A cGMP standard curve was fit using a 4-parameter fit (log(inhibitor) vs. response—variable slope) using GraphPad Prism Software v.6. Samples were diluted appropriately to ensure that values fell within the linear range of the standard curve.
Data were fit using a 4-parameter fit (log(agonist) vs. response—variable slope) using GraphPad Prism Software v.6.

obese mice = conditions: cited from earlier work
[2] = tested on: lambs with acute pulmonary hypertension; conditions: cited from earlier work; for effect on pulmonary vasodilation induced by iNO: BAY 41-8543 inhaled microparticles, ODQ intravenous; for pulmonary vasodilation / transpulmonary cGMP release / effect on mean arterial pressure / systemic arterial oxygenation: inhaled microparticles; for pulmonary vasodilation / transpulmonary cGMP release: U-46619-induced pulmonary hypertension
sickle mice = conditions: oral, high doses; cited from earlier work
[3] = tested on: adult sickle cell disease patients; conditions: infusions; cited from earlier work
NO-deficient rats = conditions: cited from earlier work
[4] = tested on: Guinea pig tracheal smooth muscle; assay: Electrical field stimulated guinea pig tracheal smooth muscle (ex vivo) bronchodilation model; conditions: inhibition of EFS-induced baseline contraction; 95% Cl, 0.78-0.94
Experimental: It is possible to assess the bronchodilating effects of sGC stimulators by using the system described below. […]
On each experimental day, a guinea pig is killed by exposure to a rising concentration of CO2 and the trachea removed. […] Tissues are washed with Kreb's buffer and stimulated using the previously determined sub-maximal voltage for 1 hour to establish a stable baseline contraction prior to assessment of compound activity.
A cumulative dose response curve (DRC) to each test substance is then performed and changes in smooth muscle contraction measured. The effect of each test substance in each experiment is expressed as a percentage inhibition of the baseline contraction, normalized to the relevant vehicle controls. […] The data from all three experiments are pooled, the DRC plotted, and the test substance potency and efficacy determined.

[5] = tested on: sickle cell disease patients; conditions: cited from earlier work
mdx mouse = conditions: cited from earlier work
[6] = tested on: adult patients with sickle cell disease; conditions: acute VOE, vs placebo; cited from earlier work

**Q.** For `COc1cc(-c2ncc(F)c(N3CCc4cn[nH]c4C3)n2)nn1Cc1ccccc1F` [Compound I-6], which EC50 [1] is on record?
**A.** The EC50 was 1000 to 5000 nM.

**Q.** For `CC(=O)c1cc(-c2ncc(F)c(N3CCc4[nH][nH]c(=O)c4C3)n2)nn1Cc1ccccc1F` [Compound I-16], which EC50 [1] is on record?
**A.** The EC50 was 1000 to 5000 nM.

**Q.** Which EC50 [1] does the source give for `COc1cc(-c2ncc(F)c(N3CCn4c(n[nH]c4=O)C3)n2)nn1Cc1ccccc1F` [Compound I-2] here?
**A.** Its EC50 is 1000 to 5000 nM.

**Q.** Which overactive bladder (obese mice) does the source give for `O=C(O)CCCCN(CCc1cc(F)ccc1OCc1ccc(-c2ccc(C(F)(F)F)cc2)cc1)Cc1ccc(C(=O)O)cc1` [BAY 60-2770] here?
**A.** Its overactive bladder is “ameliorates overactive bladder”.

**Q.** What does the source list for `Nc1nc(-c2nn(Cc3ccccc3F)c3ncccc23)nc(N)c1N1CCOCC1` [BAY 41-8543]?
**A.** effect on pulmonary vasodilation induced by iNO [2]: augmented; pulmonary vasodilation [2]: dose dependent pulmonary vasodilation; transpulmonary cGMP release [2]: increased; effect on mean arterial pressure [2]: without significant effect; systemic arterial oxygenation [2]: increased

**Q.** Which “Gardos channel activity, dense cell formation and hemolysis” value (sickle mice) does the source give for `N=C(N)NCCC[C@H](N)C(=O)O` [L-arginine] here?
**A.** The value was “decrease”.

**Q.** What does the source list for `Nc1nc(-c2nn(Cc3ccccc3F)c3ncccc23)ncc1C1CC1` [BAY 41-2272]?
**A.** pulmonary vasodilation [2]: dose dependent pulmonary vasodilation; transpulmonary cGMP release [2]: increased; effect on mean arterial pressure [2]: without significant effect

**Q.** With `CC(=O)c1cc(-c2ncc(F)c(N3CCn4c(n[nH]c4=O)C3)n2)nn1Cc1ccccc1F` [Compound I-14] as the compound, how does the EC50 [1] read?
**A.** The EC50 was 1000 to 5000 nM.

**Q.** Which “effect on pulmonary vasodilation induced by iNO” value [2] does the source give for `O=c1onc2cnc3ccccc3n12` [ODQ, 1H-[1,2,4]oxadiazolo[4,3-a]quinoxalin-1-one] here?
**A.** The value was “markedly reduced”.

**Q.** With `O=NO` [sodium nitrite] as the compound, how does the forearm blood flow [3] read?
**A.** The forearm blood flow was “enhanced”.

**Q.** For `Nc1nc(-c2nn(Cc3ccccc3F)c3ncccc23)ncc1C1CC1` [BAY-2272], which bladder dysfunction (NO-deficient rats) is on record?
**A.** The bladder dysfunction was “protective effects”.

**Q.** Which IC50 [4] does the source give for `CC(C)[N+]1(C)[C@@H]2CC[C@H]1CC(OC(=O)C(CO)c1ccccc1)C2` (stereo partly drawn) [Ipratropium bromide] here?
**A.** Its IC50 is 0.86 nM.

**Q.** For `O=C(O)CCCCN(CCc1ccccc1OCc1ccc(CCc2ccccc2)cc1)Cc1ccc(C(=O)O)cc1` [BAY 58-2667], which “pulmonary vasodilation and transpulmonary cGMP release after treatment with ODQ” value ([2]; inhaled microparticles after ODQ) is on record?
**A.** The value was “greatly enhanced”.

**Q.** What about the pulmonary vasodilation [2] of the same compound?
**A.** The pulmonary vasodilation was “dose dependent pulmonary vasodilation”.

**Q.** What about the “transpulmonary cGMP release” value [2] of the same compound?
**A.** The value was “increased”.

**Q.** What about the “effect on mean arterial pressure” value [2] of the same compound?
**A.** The value was “without significant effect”.

**Q.** And the systemic arterial oxygenation [2]?
**A.** Its systemic arterial oxygenation is “increased”.

**Q.** With `CCCc1nn(C)c2c(=O)[nH]c(-c3cc(S(=O)(=O)N4CCN(C)CC4)ccc3OCC)nc12` [sildenafil] as the compound, how does the “serious side effects (VOE, headache, visual disturbance)” value ([5]; Walk-PHaSST multicenter trial, stopped prematurely) read?
**A.** The value was “higher frequency of serious side effects”.

**Q.** What about the “PAP and exercise capacity” value ([5]; sickle cell disease patients with severe PHT) of the same compound?
**A.** Its value is “improvements”.

**Q.** And the “muscle ischemia, injury and fatigue after a brief bout of exercise” value (mdx mouse)?
**A.** The value was “alleviate muscle ischemia”.

**Q.** For nitric oxide [inhaled NO], which pain scores [6] is on record?
**A.** The pain scores was “significantly reduced”.
